{
  "source": "patent US7087608B2",
  "about": "“Use of PDGF receptor tyrosine kinase inhibitors for the treatment of diabetic nephropathy” (priority 2000, dated 2006)",
  "test_system": "male Wistar rats with anti-Thy-1 nephritis",
  "experiment": "Mesangial proliferative glomerulonephritis (anti-Thy-1 nephritis) induced with OX-7 antibody",
  "assay_type": "in vivo, rat",
  "description": "Mesangial proliferative Glomerulonephritis induced in Male Wistar Rats with monoclonal OX-7, anti-rat Thy-1.1 Antibody\nMonoclonal OX-7, anti-rat Thy-1.1 antibody is used for the induction of mesangial proliferative glomerulonephritis (D. W. Mason and A. F. Williams, Biochem. J. 187(1), 1980, 1–20), macrophages are detected using ED1, anti-rat CD68 (C. D. Dijkstra et al., Immunology 54(3), 1985, 589–99) myofibroblasts are identified by labelling with 1A4, anti-human a smooth muscle actin (Sigma Immunochemicals, St. Louis, Mo.) and M744, anti-BrdU (Dako, Glostrup, Denmark) is used to identify proliferating cells. A polyclonal goat anti-bovine/anti-human type IV collagen antibody (Southern Biotechnology, Birmingham, Ala.) is used to examine extracellular matrix.\nAnti-Thy-1 nephritis is induced in two groups of 8 male Wistar rats (150–170 g) by i.v. injection of 5 mg/kg OX-7 IgG (D. J. Nikolic-Paterson et al., J. Am. Soc. Nephrol. 7(7), 1996, 1006–14). […] A group of 8 normal rats are also injected with BrdU 3 hours before sacrifice.\nTwenty-four hour urine collections and blood samples are taken on days-3 (prior to test) and day 6. Urinary protein concentration is measured by the benzethonium chloride method (Iwata, J. et al., Clin. Chem. 25(7), 1979, 1317–9). Serum and urine creatinine levels are measured using the Jaffé rate reaction (Larsen, K., Clin. Chim. Acta 41, 1972, 209–17).\nTissues are fixed in 4% neutral buffered-formalin and embedded in paraffin. Kidney sections (4 μm) are stained with periodic-acid Schiff's reagent (PAS). Quantitation of nuclei is performed by examining 50 hilar glomeruli per animal.\nImmunostaining is performed as described by Rumble et al., J. Clin. Invest. 99, 1997, 1016–1027. Double immunohistochemical staining is performed in formalin fixed tissue sections using a microwave-based technique to prevent antibody cross-reactivity (G. H. Tesch, et al, Am. J. Pathol. 151(1), 1997, 141–50).\nSections stained with either BrdU or ED1 antibody are scored for ED1+ or BrdU+. Counting is undertaken using a graticule to measure glomerular tuft area and confined to the glomerular tuft thereby omitting cells within the capillary lumen. Fifty glomeruli are scored for each animal and labelled cells expressed as the mean±SD per mm^2. In addition, the number of cells in double-labelled sections are also scored as ED1+BrdU+, ED1+BrdU− and ED1−BrdU+.\nThe magnitude of immunostaining for type IV collagen is quantified using computer assisted image analysis as previously described (H. A. Lehr et al., J. Histochem. Cytochem. 45(11), 1997, 1559–65).",
  "key": {"[1]": {"conditions": "50 mg/kg daily i.p., day 6, 50 hilar glomeruli per animal, p<0.05"}},
  "data": [
    {"smiles": "Cc1ccc(NC(=O)c2ccc(CN3CCN(C)CC3)cc2)cc1Nc1nccc(-c2cccnc2)n1", "note": "[CGP 57148B, N-{5-[4-(4-methyl-piperazino-methyl)-benzoylamido]-2-methylphenyl}-4-(3-pyridyl)-2-pyrimidine-amine]", "values": [
      {"measurement": "Proteinuria", "setting": "50 mg/kg daily i.p. from day 1 after OX-7 IgG, day 6, 24-hour urine", "value": "16.4±7.0", "unit": "mg/24 hours"},
      {"measurement": "Mesangial cell (BrdU+ED1−) proliferation per glomerular cross section (FIG. 2)", "setting": "50 mg/kg daily i.p., day 6, 50 hilar glomeruli per animal, p<0.001", "value": "significantly reduced"},
      {"measurement": "Glomerular hypercellularity, nuclei per glomerular cross section (FIG. 1)", "setting": "[1]", "value": "significantly reduced"},
      {"measurement": "Number of activated mesangial cells (a-smooth muscle actin positive) (FIG. 3)", "setting": "[1]", "value": "significantly reduced"},
      {"measurement": "Glomerular matrix accumulation of immunostainable type IV collagen (FIG. 4)", "setting": "50 mg/kg daily i.p., day 6, image analysis, p<0.05 versus untreated rats", "value": "significantly reduced"},
      {"measurement": "Mesangial hypercellularity and increased mesangial matrix in PAS-stained kidney sections", "setting": "50 mg/kg daily i.p., killed on day 6", "value": "not observed"}
    ]}
  ]
}
